This note sets out measurements from patent publication US6967100B2, “Pancreatic islet cell growth factors” (The Walter and Eliza Hall Institute of Medical Research, priority 2000, dated 2005).

In assay [1] the test system is E15.5 CBA mouse fetal pancreas cells. Description: Cystic colony formation of E15.5 fetal mouse pancreas cells in laminin-1 overlay culture. It counts as cell-based. As for the experimental part: Pancreata were dissected from embryonic day (E)15.5 CBA mouse fetuses and dissociated into single cells as described (Jiang et al., 1999). Briefly, dissected pancreas was digested with trypsin/EDTA for 15 minutes at 37° C. in a shaking water bath. Cells were counted in a haemocytometer and viability determined by trypan blue dye exclusion. Each fetal pancreas yielded 50,000 viable cells (48,509±11,299, n=14). Dissociated cells were plated in 8 well chamber slides (Nunc, Naperville, USA) at 7.5×10^4 cells/well in 0.3 ml AIM V medium supplemented with N-2 (1:100, Gibco BRL Life Technologies, Gaithersburg, USA), 500 UI/ml penicillin and 500 μg/ml streptomycin. Laminin-1 (160 μg/ml), purified from murine Engelbreth-Holm-Swarm tumor basement membrane (Becton Dickinson Labware, Bedford, USA), was overlayed on cells in the presence of various growth factors. Cultures were incubated in 10% CO2 90% air at 37° C., for up to 6 days. Recombinant human BMP 6 and BMP 5, recombinant human TGF-β1 and recombinant activin A were purchased from R&D Systems (Minneapolis, USA). These factors, dissolved at a concentration of 10 ng/μl in mouse tonicity phosphate buffered saline (PBS) containing 0.1% w/v bovine serum albumin (BSA), were added at the start of culture. Phase contrast images of colonies were photographed with Olympus IX70 digitized camera.
Colony formation was assessed at day 6 of culture. A colony was defined as a cellular sphere ≧30 μm in diameter, which contained more than 20 cells. The number of colonies per well was counted directly under a inverted microscope at ×10. Colony counts were performed using a blind design.

The test system of assay [2] is 13.5 dpc fetal mouse pancreas cells. Put plainly: Low cell density serum-free culture of 13.5 dpc fetal mouse pancreatic cells: total and insulin-positive β cell number. It counts as cell-based. The note with it: for laminin-1 induced/mediated β cell differentiation: with laminin-1, four days. As for the experimental part: (§1) Dissociated fetal pancreas cells were prepared from 13.5 dpc CBA mice. Pregnant mice at 13.5 dpc were killed by cervical dislocation and fetuses collected into ice cold sterile mouse tonicity phosphate-buffered saline (MTPBS). Fetal pancreata were harvested under an Olympus dissection microscope into RPMI 1640 medium and dissociated in a shaking water bath at 37° C. for 11 mins in Ca^2+/Mg^2+-free PBS containing 0.5% v/v trypsin/EDTA as described for testis by Bucci et al. (1986). After dissociation, trypsin was inactivated by addition of 8% w/v bovine serum albumin (BSA, fraction V) (Sigma, St. Louis, USA). The tissue was aspirated several times in a pipette, passed through a 27 gauge needle to make a single cell suspension and then rinsed in 10 μg/ml DNAse I (Promega, Madison, USA) in RPMI 1640 for 10 mins to reduce cellular aggregates. Cell suspensions were filtered through a 70-100 μm steel mesh, centrifuged at 400×g for 5 mins and the supernatant discarded. The cell pellet was resuspended in HYBRIDOMA medium and stored on ice. Cells were counted under a haemocytometer and viability was determined by exclusion of 0.2% v/v trypan blue dye. Pancreatic cells were plated in 8 chamber slides (Nunc) at 1.5×10^4 cells/well in 0.3 ml HYBRIDOMA medium 500 UI/ml penicillin and 500 μg/ml streptomycin. The cells were cultured in 10% v/v CO2, 90% v/v air at 37° C. with 100% humidity for four days in the presence of factors such as laminin-1 and BMPs.
Fetuses at 15.5 and 18.5 dpc from homozygous (−/−) or heterozygous (+/−) α6 integrin gene targeted (Georges-Labouesse et al., 1996) or wild type mice were fixed overnight in Bouin ? s solution. After standard dehydration processing, fetuses were embedded into paraffin and sectioned at 7 μm. Cultured pancreatic cells were washed three times with warm mouse tonicity phosphate buffered saline (MT-PBS) and fixed with 4% paraformaldehyde (PFA) for 10 mins. Endogenous peroxidase was blocked by 3% v/v H2O2 in methanol for 8 mins. Prior to antibody staining, non-specific protein binding was blocked by incubation for at least 30 mins with MT-PBS containing 2% w/v bovine serum albumin or 2% v/v normal rabbit serum. Controls were performed by replacing first antibody with pre-immune serum from the appropriate species. Cell were incubated with primary antibodies for 90 mins at room temperature, followed by three thorough washes with MT-PBS. Horseradish peroxidase-conjugated rabbit anti-guinea pig or swine anti-rabbit immunoglobulins (Dako) were added for 30 mins at room temperature followed by thorough washes. Immunoperoxidase was detected with 3,3′-diamninobenzidine/H2O2 for 4-8 mins, and slides were counterstained with haematoxylin.
Immunoperoxidase positive and negative cells were quantitated in the central strip of each culture chamber (a 90×90 mm square) under a microscope equipped with an eyepiece graticule (Olympus, Japan) at ×40 power and calibrated with a micrometer (Olympus). All data are presented as mean±s.e.m of at least three independent experiments.

The test system is the same in assay [3]. Description: Colony formation of 13.5 dpc fetal mouse pancreas cells cultured with BMPs and laminin-1. To be noted: 13.5 dpc fetal pancreas cells. The format is cell-based. The method, then: as §1
(§2) After four days in culture, cells were washed twice with warm MT-PBS and fixed with a 4% v/v paraformaldehye for 10 mins. In some cases, 100 μM BrdU was added to label proliferating cells 12 hours before fixation and detection with monoclonal antibody to BrdU and FITC-labelled rabbit anti-mouse immunoglobulin. For immunoperoxidase staining, endogenous peroxidase was blocked by 3% v/v H2O2 in methanol for 8 mins and, prior to addition of primary antibody, non-specific protein binding was blocked by incubation for at least 30 mins in MTPBS containing 2% w/v BSA or 2% v/v normal rabbit serum. Controls were performed by replacing primary antibody with pre-immune serum from the appropriate species. Tissue sections or cells were incubated with primary antibodies for 90 min RT, followed by three thorough washes with MTPBS. For immunoperoxidase staining, horseradish peroxidase-conjugated rabbit anti-guinea pig, swine anti-rabbit or rabbit anti-mouse immunoglobulins (Dako) diluted 1:80 were added for 30 mins at RT followed by thorough washes; colour was developed with 3,3′-diaminobenzidine/H2O2 for 4-8 mins and slides counterstained with haematoxylin.
A pancreatic cell colony was defined as a spherical collection of 20 cells. Colonies were counted under a×10 power objective with an eyepiece graticule.

The test system of the next assay is α6 integrin and α-DG. Put plainly: Indirect immunofluorescence for α6 integrin and α-DG expression in cultured fetal pancreas cells. It counts as cell-based, mouse. The note with it: day 2 (laminin-1 alone: day 2 and four). As for the experimental part:
In some cultures, 100 μM BrdU (Sigma) was included to label proliferating cells; cells were fixed by 4% PFA at days 1, 2, 3 and 4 for insulin and BrdU double immunofluorescence staining. Fetuses were directly snap-frozen in liquid nitrogen, section at 8 μm, the sections air-dried for 40-60 mins and fixed in cold (−20° C.) acetone for 10 mins. Pre-treatment and primary antibody incubations were as described above, followed by incubation with Texas Red-conjugated goat anti-guinea pig immunoglobulins (Vector Laboratories, Burlingame, USA) or fluorescein isothiocyanate (FITC)-conjugated rabbit anti-mouse, -rat or -goat or swine anti-rabbit immunoglobulins (Dako) for 30 mins at room temperature and three thorough washes. Slides were observed and photomicrographed under a Zeis Axiopot fluorescence microscope.

The subject of assay [4] is 13.5 dpc fetal mouse pancreas cells. Put plainly: BrdU labelling of proliferating cells in 13.5 dpc fetal mouse pancreas cell culture. The note with it: 100 μM BrdU, laminin-1 (200 μg/ml), with or without GoH3, days 1-4. The format is cell-based. The method, then:
as §2, with “For immunoperoxidase staining, horseradish peroxidase-conjugated rabbit anti-guinea pig, swine anti-rabbit or rabbit anti-mouse immunoglobulins (Dako) diluted 1:80 were added for 30 mins at RT followed by thorough washes; colour was developed with 3,3′-diaminobenzidine/H2O2 for 4-8 mins and slides counterstained with haematoxylin.” left out
In some cultures, 100 μM BrdU (Sigma) was included to label proliferating cells; cells were fixed by 4% PFA at days 1, 2, 3 and 4 for insulin and BrdU double immunofluorescence staining. […] Slides were observed and photomicrographed under a Zeis Axiopot fluorescence microscope.

For “TGF-β1: recombinant human TGF-β1 from R&D Systems”, the “BMP 6-induced colony formation” value in assay [1] (100 ng/ml against BMP 6 10 ng/ml, laminin-1 160 μg/ml, p<0.01 (FIG. 10B)) is “antagonized”. For the same molecule, the “colony formation relative to laminin-1 alone” value in assay [1] (100 ng/ml, laminin-1 160 μg/ml (FIG. 10A)) was “suppressed colony formation to levels below that observed with laminin-1 alone”. For the same molecule, in assay [1] (dose-dependency of inhibition, BMP 6 10 ng/ml (FIG. 10C)), the “potency of inhibition of BMP 6-induced colony numbers relative to Activin A” value amounted to 100 fold.

On to `C=C1[C@@H](C)[C@H]2[C@H](Cc3ccccc3)NC(=O)[C@]23[C@H](OC(C)=O)/C=C/[C@@](C)(O)C(=O)[C@@H](C)C/C=C/[C@H]3[C@@H]1O` [Cytochalasin D], for which the “laminin-1 induced/mediated β cell differentiation” value in assay [2] was “increased”.

Take PYY: candidate growth factor: in assay [3], the “proliferation or colony formation, candidate growth factors individually” value (from here on “proliferation or colony formation”) is “unable to promote proliferation or colony formation”.

As to `O=c1c(-c2ccc(O)cc2)coc2cc(O)cc(O)c12` [genistein], the “laminin-1 induced/mediated β cell differentiation” value in assay [2] is given as “did not affect”.

With heparin, in assay [2] (heparin at 100 μM, laminin-1 plus GoH3), the “effect on the GoH3-induced increase in β cell differentiation” value is “blocked the effect of α6 integrin antibody GoH3”. The “number of total and β cells” value in assay [2] (with laminin-1, heparin at 100 μM, p<0.05) is recorded as “significantly decreased”.

Consider `COc1cccc(-c2cc(=O)c3ccccc3o2)c1N` [PD98059], for which, in assay [2], the “laminin-1 induced/mediated β cell differentiation” value is listed as “increased”.

As to “laminin-1: heterotrimeric matrix glycoprotein prepared from murine Englebreth-Holm-Swarm tumour cell basement membrane”, in the assay with α6 integrin and α-DG, the “proportion of cells positive for both α6 integrin and α-DG” value is given as “approximately 10%”. Besides, the glucagon-positive cell number entry in assay [2] (in the presence of soluble laminin-1) is recorded as “unchanged”. Further, in assay [2] (laminin-1 without or with 40 μg/ml GoH3, mean±s.e.m), the “total cell number per well” value was 4016±650. Moreover, the “β cell number per well” value in assay [2] (laminin-1 without or with 40 μg/ml GoH3, mean±s.e.m n=3) is recorded as 2265±240. For the same molecule, the “increase in number of insulin-positive β cells” value in assay [2] (soluble laminin-1, four days culture) was 60 fold. Besides, the BrdU-positive cells in assay [4] is reported as 2.5%.

As for `CO[C@H]1[C@@H](OC)C[C@H](C)[C@@H](OC)C2=CC(=O)C=C(NC(=O)/C(C)=C/C=C\[C@H](OC)[C@@H](OC(N)=O)/C(C)=C/[C@@H]1C)C2=O` [herbimycin A], the “laminin-1 induced/mediated β cell differentiation” value in assay [2] is recorded as “did not affect”.

With gastrin, the “proliferation or colony formation” value in assay [3] is given as “unable to promote proliferation or colony formation”.

With fibronectin, the “inhibition of pancreatic / β cell survival” value in assay [2] (four days culture, compared to medium alone) was “no effect”.

With HGF: candidate growth factor, in assay [3], the “proliferation or colony formation” value is listed as “unable to promote proliferation or colony formation”.

“EGF: candidate growth factor (NSDSECPLSHDGYCLHDGVCMYIEALDKYACNCVVGYIGERCQYRDLKWWELR; Epidermal growth factor; UniProt P01133 971-1023, looked up)”: the “proliferation or colony formation” value in assay [3] is on record as “unable to promote proliferation or colony formation”.
